From patent US6451732B1, “Herbicidal compositions of glyphosate trimesium” (Syngenta, Limited, priority 1999, dated 2002) come the findings set out here.

Where two headings read alike, the source gives them in different places.

The subject of experiment [1] is Abutilon theophrasti (ABUTH). In words: Field plot injury rating (Example 3). The format is in vivo. Conditions: Glyphosate TMS 1.5 lb/acre, with ammonium sulfate. The source says: (§1) In plots located in Champaign, Ill. (three replications), seeds of the following weed species were planted: Digitaria sanguinalis (“DIGSA”); Setaria faberi (“SETFA”); Setaria glauca (“SETLU”);Echinochloa crusgalli a crusgalli (“ECHCG”); Sorghum vulgare (“SORVU”); Sida spinosa (“SIDSP”); Ipomoea hederacea (“IPOHE”); Amaranthus retroflexus (“AMARE”); Xanthium strumarium (“XANST”); Helianthus annuns (“HELAN”) and Abutilon theophrasti (“ABUTH”). The plots were also planted with two varieties of glyphosate tolerant soybeans (“GLXMA P9294” and “GLXMA P9333”). When the soybeans had reached the 4-5 trifoliate stage, the plots were treated with glyphosate trimesium alone or glyphosate trimesium+bentazon, at the application rates indicated in Table 3. Injury to the species in each plot was tated 7 and 18 dats after application (DAA) of the glyphosate trimesium with or without bentazon and the results are shown in Table 3. The results shown in Table 3 are the mean of three replications.

The test system of experiment [2] is Amaranthus retroflexus (AMARE). In words: Field plot injury rating (Example 3). The conditions noted are these: Glyphosate TMS 1.5 lb/acre, with ammonium sulfate. It counts as in vivo.
Text: as §1

The subject of experiment [3] is Digitaria sanguinalis (DIGSA). In words: Field plot injury rating (Example 3). The conditions noted are these: Glyphosate TMS 1.5 lb/acre, with ammonium sulfate. The format is in vivo.
Text: as §1

Experiment [4] has as its system Echinochloa crusgalli (ECHCG). In words: Field plot injury rating (Example 3). The format is in vivo. The conditions noted are these: Glyphosate TMS 1.5 lb/acre, with ammonium sulfate.
Text: as §1

Experiment [5] deals with Helianthus annuns (HELAN). The experiment is described as follows: Field plot injury rating (Example 3). It counts as in vivo. The conditions noted are these: Glyphosate TMS 1.5 lb/acre, with ammonium sulfate.
Text: as §1

The subject of experiment [6] is Ipomoea hederacea (IPOHE). In words: Field plot injury rating (Example 3). The format is in vivo. The conditions noted are these: Glyphosate TMS 1.5 lb/acre, with ammonium sulfate.
Text: as §1

The test system of experiment [7] is Setaria faberi (SETFA). In words: Field plot injury rating (Example 3). It counts as in vivo. The conditions noted are these: Glyphosate TMS 1.5 lb/acre, with ammonium sulfate.
Text: as §1

Experiment [8] relates to Setaria glauca (SETLU). The experiment is described as follows: Field plot injury rating (Example 3). It counts as in vivo. The conditions noted are these: Glyphosate TMS 1.5 lb/acre, with ammonium sulfate.
Text: as §1

The subject of experiment [9] is Sida spinosa (SIDSP). The experiment is described as follows: Field plot injury rating (Example 3). The format is in vivo. The conditions noted are these: Glyphosate TMS 1.5 lb/acre, with ammonium sulfate.
Text: as §1

The subject of experiment [10] is Sorghum vulgare (SORVU). In words: Field plot injury rating (Example 3). Conditions: Glyphosate TMS 1.5 lb/acre, with ammonium sulfate. It counts as in vivo.
Text: as §1

The test system of experiment [11] is Xanthium strumarium (XANST). In words: Field plot injury rating (Example 3). It counts as in vivo. The conditions noted are these: Glyphosate TMS 1.5 lb/acre, with ammonium sulfate.
Text: as §1

The subject of experiment [12] is GLXMA P9294. In words: Field plot injury rating (Example 3). It counts as in vivo, glyphosate tolerant soybeans. Conditions: Glyphosate TMS 1.5 lb/acre, with ammonium sulfate.
Text: as §1

Experiment [13] concerns GLXMA P9333. The experiment is described as follows: Field plot injury rating (Example 3). The format is in vivo, glyphosate tolerant soybeans. Conditions: Glyphosate TMS 1.5 lb/acre, with ammonium sulfate.
Text: as §1

Experiment [14] relates to glyphosate tolerant soybeans. In words: Greenhouse postemergence injury to glyphosate tolerant soybeans, glyphosate trimesium and bentazon (Example 2).
Experimental: (§2) The soil was fortified with fertilizer (10-10-10) prior to seeding The compounds were dissolved in water and applied with a carrier volume of 200 L/ha. All treatments were replicated four times.
(§3) The pots were placed in a greenhouse and maintained under good growing conditions. The greenhouse evironmental systems provided the plants with natural and artificial lighting to attaim 12 hours of light per day. Day and night temperatures were maintained at 29° and 21° C. respectively.
(§4) Plants were grown to the V2 or 2 leaf stage prior to compound application. Plants were sprayed 30.5cm (12 inches) above the foliage with the spray solution as prepared for the pre-emergence test. Treated plants were then returned to a greenhouse and watered daily without wetting the foliage. Injury to plants was evaluated 5 days after treatment (“CDAT”) and 13 DAT. Injury was evaluated as percent control being the total injury to the plants due to all factors including: inhibited emergence, stunting, malformation, albinism, chlorosis, and other types of plant injury.
Experiment [15] concerns glyphosate tolerant soybeans. The conditions noted are these: postemergence.
Experimental: as §2, §3, §4
The test system of experiment [16] is glyphosate tolerant corn. Conditions: postemergence.
Experimental: as §2, §3, §4
Where [17] appears, read: Glyphosate trimesium 750 g/ha, Bentazon 0 g/ha.
Setting [18] is: Glyphosate trimesium 1500 g/ha, Bentazon 0 g/ha.
The mark [19] stands for this setting: Glyphosate trimesium 3000 g/ha, Bentazon 0 g/ha.

Turning to `C[S+](C)C.O=C([O-])CNCP(=O)(O)O` [Glyphosate trimesium, trimethylsulphonium salt of N-phosphonomethylglycine], in [1] (7 DAA), the “Injury ABUTH 7 DAA” value stood at 40. Besides, in experiment [1] (18 DAA), the “Injury ABUTH 18 DAA” value is 80. For the same molecule, the “Injury AMARE 7 DAA” value in experiment [2] (7 DAA) is reported as 100. Moreover, the “Injury AMARE 18 DAA” value in experiment [2] (18 DAA) worked out at 100. The “Injury DIGSA 7 DAA” value in [3] (7 DAA) turned out to be 99. The “Injury DIGSA 18 DAA” value in experiment [3] (18 DAA) amounted to 100. In experiment [4] (7 DAA), the “Injury ECHCG 7 DAA” value came out at 67. Moreover, the “Injury ECHCG 18 DAA” value in experiment [4] (18 DAA) is on record as 94. In addition, in [5] (7 DAA), the “Injury HELAN 7 DAA” value is on record as 99. The “Injury HELAN 18 DAA” value in [5] (18 DAA) is 100. For the same molecule, the “Injury IPOHE 7 DAA” value in experiment [6] (7 DAA) is reported as 43. For the same molecule, the “Injury IPOHE 18 DAA” value in [6] (18 DAA) is on record as 68. Also, the “Injury SETFA 7 DAA” value in experiment [7] (7 DAA) worked out at 96. For the same molecule, in [7] (18 DAA), the “Injury SETFA 18 DAA” value came out at 100. Also, the “Injury SETLU 7 DAA” value in [8] (7 DAA) came to 95. Also, the “Injury SETLU 18 DAA” value in experiment [8] (18 DAA) is on record as 100. Further, the “Injury SIDSP 7 DAA” value in experiment [9] (7 DAA) is 60. The “Injury SIDSP 18 DAA” value in experiment [9] (18 DAA) was determined as 83. Further, in experiment [10] (7 DAA), the “Injury SORVU 7 DAA” value is on record as 93. Also, the “Injury SORVU 18 DAA” value in [10] (18 DAA) is given as 100. For the same molecule, the “Injury XANST 7 DAA” value in experiment [11] (7 DAA) worked out at 99. Also, the “Injury XANST 18 DAA” value in experiment [11] (18 DAA) is listed as 100. The “Injury GLXMA P9294 7 DAA” value in experiment [12] (7 DAA) is 8. The “Injury GLXMA P9294 18 DAA” value in experiment [12] (18 DAA) is 9. In [13] (7 DAA), the “Injury GLXMA P9333 7 DAA” value came to 5. Moreover, the “Injury GLXMA P9333 18 DAA” value in [13] (18 DAA) stood at 6. Also, the “Soybean injury (percent control) 5 DAT” value in experiment [14] (setting [17]) was 13%; in experiment [14] (setting [18]) it was 37%; in [14] (setting [19]) it was 58%. Also, the “Soybean injury (percent control) 13 DAT” value in experiment [14] (setting [17]) is 7%; in experiment [14] (setting [18]), 27%; in experiment [14] (setting [19]), 35%.

For `C[S+](C)C.[Cl-]` [TMS, trimethylsulphonium chloride], in experiment [15] (TMS 420 g/ha, Bentazon 0 g/ha), the “Soybean injury (percent control) 5 DAT” value is given as 15% and the “Soybean injury (percent control) 13 DAT” value turned out to be 13%. In [15] (TMS 840 g/ha, Bentazon 0 g/ha), the “Soybean injury (percent control) 5 DAT” value is recorded as 24% and the “Soybean injury (percent control) 13 DAT” value was determined as 18%. Further, in experiment [16] (TMS 420 g/ha, Bentazon 0 g/ha), the “Corn injury (percent control) 5 DAT” value was found to be 14% and the “Corn injury (percent control) 13 DAT” value is 48%. Further, in experiment [16] (TMS 840 g/ha, Bentazon 0 g/ha), the “Corn injury (percent control) 5 DAT” value came out at 19% and the “Corn injury (percent control) 13 DAT” value is recorded as 60%.

Turning to `CC(C)N1C(=O)c2ccccc2NS1(=O)=O` [Bentazon, bentazon], the “Soybean injury (percent control) 5 DAT” value came to 2% in experiment [15] (TMS 0 g/ha, Bentazon 250 g/ha); 8% in experiment [15] (TMS 0 g/ha, Bentazon 500 g/ha); 0% in experiment [14] (Glyphosate trimesium 0 g/ha, Bentazon 4 g/ha); 0% in [14] (Glyphosate trimesium 0 g/ha, Bentazon 8 g/ha); 0% in experiment [14] (Glyphosate trimesium 0 g/ha, Bentazon 16 g/ha); 0% in experiment [14] (Glyphosate trimesium 0 g/ha, Bentazon 32 g/ha). In experiment [14] (Glyphosate trimesium 0 g/ha, Bentazon 64 g/ha), the “Soybean injury (percent control) 5 DAT” value was 0%. Besides, the “Corn injury (percent control) 5 DAT” value in experiment [16] (TMS 0 g/ha, Bentazon 250 g/ha) came out at 0%; in experiment [16] (TMS 0 g/ha, Bentazon 500 g/ha), 0%. For the same molecule, the “Corn injury (percent control) 13 DAT” value in [16] (TMS 0 g/ha, Bentazon 250 g/ha) is given as 0%; in experiment [16] (TMS 0 g/ha, Bentazon 500 g/ha), 0%.
